The source of these data is patent US11629171B2, “Beta-hairpin peptidomimetics” (POLYPHOR AG, priority 2017, dated 2023).

By MIC is commonly meant the lowest concentration found to suppress growth.

≈ marks a conversion by molar mass, not a printed value. Where a SMILES comes first, the peptide text is derived from it. Bridges are numbered along the chain shown (N, C = ends). Roman numbers before positions name the chains, in order. [ ]: non-standard residue; d: D form. dDab = NCC[C@@H](N)C(=O)O; Orn = NCCC[C@H](N)C(=O)O; Dab = NCC[C@H](N)C(=O)O; Dap = NC[C@H](N)C(=O)O Where only a bound is given, the exact number is not on record here.

Data set [1] deals with human red blood cells (hRBC). Put plainly: Hemolysis. It is filed as cell-based. To be noted: red cells of human, 1 h, 200. Put shortly:
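Washed fresh hRBC (20% v/v) were incubated with peptides at 200 μg/mL for 1 h at 37° C with shaking at 300 rpm. Supernatant OD540 was read after centrifugation and dilution, blank-corrected, and expressed as percent of the 2% Triton X-100 (100% lysis) control; PBS with 10% water gave 0%.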

Data set [2] deals with male ICR mice. Put plainly: Tolerability in a mouse model (Maximum Tolerated Dose assay). It is filed as in vivo. To be noted: 2 × 40 mg/kg s.c. at a 12-hr interval, groups of 3. How it is done:
The tolerability of the peptides was tested in a mouse model at Pharmacology Discovery Services Taiwan Ltd, Taipei, Taiwan. The peptides were administered subcutaneously (s.c.) at 30 mg/kg or 40 mg/kg, respectively; twice at a 12-hr interval, for assessment of possible adverse effects in the Maximum Tolerated Dose (MTD) assay in male ICR (Institute of Cancer Research) mice. The peptides were dissolved in 0.9% NaCl at the concentrations either of 6 or 8 mg/mL, respectively, based on the free base molecular weight. The pH values of dosing solutions were adjusted to 6.5-7.6 before s.c. administration. A dosing volume at 5 mL/kg and a concentration of 6 or 8 mg/mL, respectively, was applied. The fresh prepared stock solution were stored at 4° C. during the study. Male ICR mice weighing 23±3 g were provided by BioLasco Taiwan (under Charles River Laboratories Licensee). Animals were acclimated for 3 days prior to use and were confirmed to be in good health. The peptides were administered s.c. at 30 mg/kg or 40 mg/kg, respectively, twice at a 12-hr interval, to groups of 3 ICR male mice and observed for the presence of acute toxic symptoms (mortality, convulsions, tremors, muscle relaxation, sedation, etc.) and autonomic effects (diarrhea, salivation, lacrimation, vasodilation, piloerection, etc.) during the first 30 min. The peptides were administered again at a 12-hr (two total doses) interval, following the first dose. The animals were then observed again for the presence of acute toxic symptoms and autonomic effects during the first 30 min.

In data set [3] the test system is Klebsiella pneumoniae SSI #3010. It counts as cell-based. To be noted: SSI #3010. Put shortly: (§1)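 CLSI broth microdilution: inoculum ~10^6 CFU/mL in cation-adjusted Mueller-Hinton II broth, with peptide in serial two-fold dilutions plus Polysorbate 80 (0.002% final). MIC (μg/mL) is the lowest concentration without visible growth after 18-20 hours at 35° C.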
Data set [4] deals with Acinetobacter baumannii DSM 30008. It is filed as cell-based. To be noted: DSM 30008. In outline:
as §1

Data set [5] concerns Pseudomonas aeruginosa ATCC 27853. It counts as cell-based. To be noted: ATCC 27853. In outline: as §1
The subject of data set [6] is Acinetobacter baumannii 872842. It is filed as cell-based. To be noted: 872842. In outline: as §1
Data set [7] concerns Escherichia coli 926415. It counts as cell-based. To be noted: 926415. Put shortly:
as §1

The test system of data set [8] is Klebsiella pneumoniae 968733. It counts as cell-based. To be noted: 968733. In outline:
as §1

Data set [9] concerns Escherichia coli ATCC 25922. It counts as cell-based. To be noted: ATCC 25922. In outline:
as §1

Data set [10] concerns Enterobacter cloacae 848840. It is filed as cell-based. To be noted: 848840. In outline:
as §1

As to `CC(=O)N[C@H](C(=O)N[C@H]1CSSC[C@@H](C(=O)N[C@@H](CO)C(N)=O)NC(=O)[C@H](C(C)C)NC(=O)[C@H](CO)NC(=O)[C@H](Cc2c[nH]c3ccccc23)NC(=O)[C@H](CO)NC(=O)[C@@H](CCN)NC(=O)[C@H](CCC(=O)N[C@@H](CCN)C(=O)N[C@H](C(=O)N[C@@H](CCN)C(=O)N[C@H]2CCNC(=O)[C@H]([C@@H](C)O)NC(=O)[C@H](CCN)NC(=O)[C@H](CCN)NC(=O)[C@H]([C@@H](C)O)NC(=O)[C@@H](CC(C)C)NC(=O)[C@H](CCN)NC2=O)[C@@H](C)O)NC(=O)[C@H](CCN)NC(=O)[C@H](Cc2ccc(O)cc2)NC1=O)C(C)C` [Ex. 333] (I: Ac-VCY[Dab]E[dDab]SWSVCS-NH2 / II: [Dab]T[Dab][Dab][Dab][dL]T[Dab][Dab]T; disulfide I:2-I:11; amide I:5-II:N; lactam II:4-II:C), the “Hemolysis at 200 μg/mL” value in [1] is on record as 2%. Further, the Mortality and dose in data set [2] is given as 0/3 died at 2 × 40 mg/kg. The “Klebsiella pneumoniae SSI #3010 MIC” value in data set [3] is 0.0625 µg/mL. Further, the “Acinetobacter baumannii DSM 30008 MIC” value in data set [4] is 0.125 µg/mL. The “Pseudomonas aeruginosa ATCC 27853 MIC” value in data set [5] turned out to be 0.25 µg/mL. Further, the MIC in data set [6] was 0.5 µg/mL (≈ 0.208 µM); in data set [7] it was 0.5 µg/mL (≈ 0.208 µM); in [8], 1 µg/mL (≈ 0.417 µM); in [10] it was 0.25 µg/mL (≈ 0.104 µM). Moreover, the “Escherichia coli ATCC 25922 MIC” value in data set [9] was determined as 0.0625 µg/mL.
For the compound `CC(=O)N[C@H](C(=O)N[C@H]1CSSC[C@@H](C(=O)N[C@@H](CO)C(N)=O)NC(=O)[C@H](C(C)C)NC(=O)[C@H](CO)NC(=O)[C@H](Cc2c[nH]c3ccccc23)NC(=O)[C@H](CCC(=O)N[C@@H](CCN)C(=O)N[C@H](C(=O)N[C@@H](CN)C(=O)N[C@H]2CCNC(=O)[C@H]([C@@H](C)O)NC(=O)[C@H](CCN)NC(=O)[C@H](CCN)NC(=O)[C@H](CC(C)C)NC(=O)[C@@H](CC(C)C)NC(=O)[C@H](CCN)NC2=O)[C@@H](C)O)NC(=O)[C@@H](CCN)NC(=O)[C@H](CCCN)NC(=O)[C@H](CCN)NC(=O)[C@H](Cc2ccc(O)cc2)NC1=O)C(C)C` [Ex. 359] (I: Ac-VCY[Dab][Orn][dDab]EWSVCS-NH2 / II: [Dab]T[Dap][Dab][Dab][dL]L[Dab][Dab]T; disulfide I:2-I:11; amide I:7-II:N; lactam II:4-II:C), the “Hemolysis at 200 μg/mL” value in [1] is on record as 1%. For the same compound, in data set [2], the Mortality and dose is 0/3 died at 2 × 40 mg/kg. The “Klebsiella pneumoniae SSI #3010 MIC” value in [3] amounted to 0.125 µg/mL. Further, the “Acinetobacter baumannii DSM 30008 MIC” value in data set [4] came out at 0.0625 µg/mL. Besides, the “Pseudomonas aeruginosa ATCC 27853 MIC” value in data set [5] was determined as 0.125 µg/mL. In addition, the MIC worked out at 0.125 µg/mL (≈ 0.0515 µM) in data set [6], 0.25 µg/mL (≈ 0.103 µM) in data set [7], 0.5 µg/mL (≈ 0.206 µM) in [8] and 0.125 µg/mL (≈ 0.0515 µM) in [10]. For the same compound, the “Escherichia coli ATCC 25922 MIC” value in data set [9] was determined as 0.0625 µg/mL.
In the case of `CC(=O)N[C@H](C(=O)N[C@H]1CSSC[C@@H](C(=O)N[C@@H](CO)C(N)=O)NC(=O)[C@H](C(C)C)NC(=O)[C@H](CO)NC(=O)[C@H](Cc2c[nH]c3ccccc23)NC(=O)[C@H](CO)NC(=O)[C@@H](CCN)NC(=O)[C@H](CCC(=O)N[C@@H](CCN)C(=O)N[C@H](C(=O)N[C@@H](CCN)C(=O)N[C@H]2CCNC(=O)[C@H]([C@@H](C)O)NC(=O)[C@H](CCN)NC(=O)[C@H](CCN)NC(=O)[C@H](CC(C)C)NC(=O)[C@@H](CC(C)C)NC(=O)[C@H](CCN)NC2=O)[C@@H](C)O)NC(=O)[C@H](CCN)NC(=O)[C@H](Cc2ccc(O)cc2)NC1=O)C(C)C` [Ex. 334] (I: Ac-VCY[Dab]E[dDab]SWSVCS-NH2 / II: [Dab]T[Dab][Dab][Dab][dL]L[Dab][Dab]T; disulfide I:2-I:11; amide I:5-II:N; lactam II:4-II:C), the “Hemolysis at 200 μg/mL” value in data set [1] is reported as less than 1%. The Mortality and dose in data set [2] is 0/3 died at 2 × 40 mg/kg. For the same compound, the “Klebsiella pneumoniae SSI #3010 MIC” value in data set [3] was 0.0625 µg/mL. In addition, the “Acinetobacter baumannii DSM 30008 MIC” value in data set [4] was found to be 0.03125 µg/mL. Further, in data set [5], the “Pseudomonas aeruginosa ATCC 27853 MIC” value amounted to 0.125 µg/mL. The MIC in data set [6] came out at 0.125 µg/mL (≈ 0.0518 µM); in data set [7], 0.25 µg/mL (≈ 0.104 µM); in [8] it was 0.25 µg/mL (≈ 0.104 µM); in [10], 0.125 µg/mL (≈ 0.0518 µM). The “Escherichia coli ATCC 25922 MIC” value in data set [9] stood at 0.03125 µg/mL.
